What was measured:
[1] = tested on: mice; test: Formalin test carried out on mice (FTm); assay type: in vivo; conditions: 1 po, percentage change relative to control
Procedure: In the formalin test, the testing to determine the antinociceptive effect of the compounds according to the invention is carried out on male mice (NMRI, 20 to 30 g body weight, Iffa, Credo, Belgium).
In the formalin test as described by D. Dubuisson et al., Pain 1977, 4, 161-174, a distinction is drawn between the first (early) phase (0 to 15 minutes after the injection of formalin) and the second (late) phase (15 to 60 minutes after the injection of formalin). The early phase, as an immediate reaction to the injection of formalin, is a model of acute pain, whereas the late phase is regarded as a model of persistent (chronic) pain (T. J. Coderre et al., Pain 1993, 52, 259-285). The corresponding descriptions in the literature are introduced herewith by way of reference and form part of the disclosure.
The compounds according to the invention are tested in the second phase of the formalin test to obtain information about the effects of substances on chronic/inflammatory pain. […]
Subsequently, the nociceptive behaviour is continuously detected by observing the animals over a test period of three minutes in the second (late) phase of the formalin test (21 to 24 minutes after the injection of formalin). The pain behaviour is quantified by adding up the seconds over which the animals display licking and biting of the paw in question during the test period. […]

[2] = target: rat-species vanilloid receptor 1 (VR1/TRPV1) (Rattus norvegicus (Rat), UniProt O35433); test: FLIPR Ca2+ influx assay on rat dorsal root ganglia cells, capsaicin stimulus (method I); assay type: cell-based; conditions: capsaicin (Cap)
Chain of rat-species vanilloid receptor 1 (VR1/TRPV1) (O35433 whole entry): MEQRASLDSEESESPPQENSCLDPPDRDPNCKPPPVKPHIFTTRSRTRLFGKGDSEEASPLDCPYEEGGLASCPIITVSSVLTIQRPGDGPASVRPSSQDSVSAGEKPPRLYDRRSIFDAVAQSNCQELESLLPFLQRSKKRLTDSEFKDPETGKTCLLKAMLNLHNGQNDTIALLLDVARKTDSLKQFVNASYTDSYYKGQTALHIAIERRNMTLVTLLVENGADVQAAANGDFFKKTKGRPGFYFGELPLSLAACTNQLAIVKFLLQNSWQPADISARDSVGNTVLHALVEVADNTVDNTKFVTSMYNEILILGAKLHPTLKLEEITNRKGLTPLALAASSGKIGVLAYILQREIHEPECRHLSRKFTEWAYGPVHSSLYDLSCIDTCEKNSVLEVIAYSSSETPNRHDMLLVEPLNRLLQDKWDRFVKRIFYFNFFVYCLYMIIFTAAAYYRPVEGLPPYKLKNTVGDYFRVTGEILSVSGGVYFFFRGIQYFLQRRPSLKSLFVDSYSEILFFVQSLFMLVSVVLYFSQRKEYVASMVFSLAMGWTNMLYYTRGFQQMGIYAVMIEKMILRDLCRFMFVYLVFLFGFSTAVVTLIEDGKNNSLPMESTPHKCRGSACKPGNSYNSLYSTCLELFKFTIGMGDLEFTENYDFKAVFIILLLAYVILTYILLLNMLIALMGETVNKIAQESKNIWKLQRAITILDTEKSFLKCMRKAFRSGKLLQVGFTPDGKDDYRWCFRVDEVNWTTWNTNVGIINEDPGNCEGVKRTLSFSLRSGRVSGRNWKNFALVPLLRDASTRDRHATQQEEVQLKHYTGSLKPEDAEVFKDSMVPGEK

Ki [2]: 85 nM
Structure (SMILES): O=C(Cc1cccc(F)c1)NCc1cc(C(F)(F)F)nn1-c1cccc(Cl)c1 [Example 74, N-((1-(3-chlorophenyl)-3-(trifluoromethyl)-1H-pyrazol-5-yl)methyl)-2-(3-fluorophenyl)acetamide]
FTm [1]: 13%

— patent US9120756B2, “Substituted phenylureas and phenylamides as vanilloid receptor ligands” (Gruenenthal GmbH, priority 2009, dated 2015)
